Reference: patent US4726941A, “Acylated cyanamide composition for treating ethanol ingestion” (Regents of the University of Minnesota, priority 1986, dated 1988)
Read-outs that look alike come from different tables or passages of the source.

Key:
[1] = test system: aldehyde dehydrogenase (AlDH); conditions: without enzymatic activation, cited from earlier work
AlDH [2] = assay: Initial screen: elevation of blood acetaldehyde (AcH) after ethanol in rats, prodrug 1.0 mmol/kg ip; format: in vivo; conditions: rat; for potency in elevating ethanol-derived blood AcH (in words): 3 hours post-drug; for elevation of blood AcH over drug-free controls at 3 hours: ethanol 2 g/kg ip at 2 hours, sacrifice 3 hours post-drug; for elevation of blood AcH over controls at 16 hours: ethanol 2 g/kg ip at 15 hours, sacrifice 16 hours post-drug; for duration of action / blood AcH at 16 hours (in words): 16 hours post-drug
Protocol: Compounds 1-11 were evaluated in rats for their ability to elevate and maintain blood acetaldehyde (AcH) levels following ethanol administration employing the methodology outlined in Table I.
1. Drug Dose: 1.0 mmol/kg (ip)
2. Animals: Male rats of Sprague-Dawley descent (BioLab, Inc., St. Paul, MN), weighing 185-225 g were used. Four animals were used for each drug administration protocol.
3. Timing: Animals were fasted beginning at 7:00 or 8:00 AM. One group of rats were administered the prodrug at 5:00 PM (zero time) and ethanol (2 g/kg, ip) at 8:00 AM (15 hours), and the animals were sacrificed at 9:00 AM (16 hours). A second set of rats received the prodrug at 6:30 AM (zero time) and ethanol at 8:30 AM (2 hours) and the animals were sacrificed at 9:30 AM (3 hours). Cyanamide treated animals (1.0 mmol/kg) served as positive control. Blood AcH levels were determined as described hereinbelow.
(§1) Blood AcH levels were measured 1 hour after ethanol (2 g/kg, ip) in treated and control animals essentially as described by Shirota et al., in J. Med Chem., 23, 669 (1980). The animal was stunned by a quick blow to the head and blood was immediately withdrawn by open chest cardiac puncture. Aliquots (0.2 ml) were placed in 20 ml serum vials containing 1.0 ml of 5 mM sodium azide (to minimize the artifactual generation of AcH from ethanol), and the vials immediately capped with a rubber septum, frozen on Dry Ice, and kept frozen at -20° C. until assayed. AcH was determined in duplicate by the head-space gas chromatographic procedure previously described by Nagasawa et al., in Life Sci., 20, 187 (1977), and quantitated using a standard curve based on standards with known concentrations of AcH.

[3] = Stability of the purified compound on standing; format: physicochemical; conditions: clear colorless liquid, storage at 5° C.
Protocol: n-Butyryl chloride (3.2 g, 3.12 ml, 0.030 mol) in 50 ml of freshly distilled dry THF was added drop-wise to a suspension of sodium cyanamide (5.76 g, 0.090 mol) in 100 ml of freshly distilled dry THF at ice bath temperature. The reaction was allowed to proceed at room temperature for 24 hours and then the mixture evaporated to dryness in vacuo. The resulting yellow solid residue was dissolved in distilled water (50 ml) and the alkaline solution was adjusted to pH 6.5 with 10% HCl. The mixture was then extracted with ethyl acetate (2×50 ml). […] TLC: Rf =0.6 in EtOAC/petroleum ether/AcOH (50:100:1), detected by UV quenching and orange color with ferricyanide spray reagent; IR (neat, cm^-1) 3100-3250 (NH), 2860-2960 (alkyl), 2260 (C≡N), 1725 (C=0); NMR (Silanor C, δ from TMS) 8.2-8.5 (broad, NH), 2.3-2.6 (t, --CH2 --CH2 --C=O), 1.5-1.9 (sextet, CH3 --CH2 --CH2 --), 0.8-1.1 (t, CH3 --CH2 --); CI--MS (NH 3 : positive) m/z (rel. intensity) 147 (12.6, [(M+1)+2NH3 ]), 130 (100.0) [(M+1)+NH3 ], 105 (5.2) [(M+1)+2NH3 --H2 NCN]; CI--MS (NH3 : negative) m/z (rel. intensity) 111 (100.0) [M-1], 68 (2.0) [(M-1)--CH3 CH2 CH2 ], 41 (16.7) [(M-1)--CH3 CH2 CH=C=O].

AlDH [4] = assay: Time course protocol (72 hour), ip: blood AcH after ethanol in rats; format: in vivo; conditions: rat; for duration of blood AcH elevation over 72-hour time course (in words) / time at which blood AcH elevation reached maximum: FIG. 5 (0.5 mmol/kg); for time at which blood AcH elevation reached maximum: ethanol 2 g/kg ip 1 hour before sacrifice
Protocol: FIG. 5 is a graphic depiction of the effectiveness of four of the compositions of the invention in elevating blood AcH following ethanol administration in rats over a 72 hour time course (0.5 mmol/kg i.p. dose).
(§2) 1. Drug Dose: 0.5 mmol/kg (ip); 1.0 mmol/kg (po)
(§3) 2. Animals: Male rats of Sprague-Dawley descent (BioLab, Inc., St. Paul, MN), weighing 176-200 g were used. Two animals were used for each drug administration protocol.
(§4) 3. Timing: Overnight fasted animals were administered the prodrug at zero time, ethanol (2 g/kg, ip) at 1, 4, 11, 23, 35, 47 and 71 hours and sacrificed 1 hour subsequent to each ethanol administration. Cyanamide treated animals (1.0 mmol/kg) served as positive control.
as §1

AlDH [5] = assay: Time course protocol (72 hour), oral: blood AcH after ethanol in rats; format: in vivo; conditions: rat, 1.0 mmol/kg po, FIG. 6
Protocol: FIG. 6 is a graphic depiction of the effectiveness of palmitoylcyanamide and N-benzoyl-L-leucylcyanamide, administered orally, in elevating blood AcH following ethanol administration in rats over a 72 hour time course.
as §2, §3, §4, §1

[6] = rat, within 6 hours; cited from earlier work
[7] = test system: aldehyde dehydrogenase (AlDH); conditions: clinical use, background statement; cited from earlier work

CC(=O)NC#N [AC, acetylcyanamide]
AlDH inhibitory activity in vitro [1]: devoid of AlDH inhibitory activity in vitro

CC(=O)NC#N.[Na] [Compound 1, Sodium Acetylcyanamide]
potency in elevating ethanol-derived blood AcH (in words) (AlDH [2]): much weaker than cyanamide
elevation of blood AcH over drug-free controls at 3 hours (AlDH [2]): 25 fold

N#CNC(=O)c1ccccc1 [Compound 2, Benzoylcyanamide]
elevation of blood AcH over controls at 16 hours (AlDH [2]): 10 fold

CC(C)(C)C(=O)NC#N [Compound 3, Pivaloylcyanamide]
potency in elevating ethanol-derived blood AcH (in words) (AlDH [2]): very potent
duration of action / blood AcH at 16 hours (in words) (AlDH [2]): short acting

N#CNC(=O)C12CC3CC(CC(C3)C1)C2.N#CNC(=O)C12CC3CC(CC(C3)C1)C2 [Compound 4, 1-Adamantanecarbonyl Cyanamide (1-Adamantoylcyanamide)]
potency in elevating ethanol-derived blood AcH (in words) (AlDH [2]): very potent
duration of action / blood AcH at 16 hours (in words) (AlDH [2]): short acting

CCCC(=O)NC#N [Compound 5, n-Butyrylcyanamide]
potency in elevating ethanol-derived blood AcH (in words) (AlDH [2]): even more potent than cyanamide itself
duration of action / blood AcH at 16 hours (in words) (AlDH [2]): short-acting
elevation of blood AcH over drug-free controls at 3 hours (AlDH [2]): 170 fold
elevation of blood AcH over controls at 16 hours (AlDH [2]): approximately 20 fold
stability on standing [3]: decomposes on standing even at 5 °C after prolonged periods

CCCCCCCCCCCCCCCC(=O)NC#N [Compound 6, Palmitoylcyanamide]
potency in elevating ethanol-derived blood AcH (in words) (AlDH [2]): almost as potent as cyanamide
elevation of blood AcH over controls at 16 hours (AlDH [2]): 100 fold
duration of blood AcH elevation over 72-hour time course (in words) (AlDH [4]): significantly elevated even at 48 hours
time at which blood AcH elevation reached maximum (AlDH [4]): around 5 hours
time at which AcH levels once again increased (AlDH [5]): 24 h
time at which blood AcH fell back to control levels (AlDH [5]): around 36 hours
time of maximum AcH levels (AlDH [5]): 2 h
time of trough of AcH levels (AlDH [5]): 12 h

CCCCCCCCCCCCCCCCCC(=O)NC#N [Compound 7, Stearoylcyanamide]
potency in elevating ethanol-derived blood AcH (in words) (AlDH [2]): almost as potent as cyanamide
elevation of blood AcH over controls at 16 hours (AlDH [2]): more than 50 fold
duration of blood AcH elevation over 72-hour time course (in words) (AlDH [4]): gradually fell
time at which blood AcH elevation reached maximum (AlDH [4]): around 5 hours

N#CNC(=O)OCc1ccccc1.[Na] [Compound 8, N-Carbobenzoxycyanamide, Sodium Salt]
elevation of blood AcH over drug-free controls at 3 hours (AlDH [2]): 120 fold

N#CNC(=O)CNC(=O)OCc1ccccc1 [Compound 9, N-Carbobenzoxyglycylcyanamide]
duration of action / blood AcH at 16 hours (in words) (AlDH [2]): reduced to almost control levels
elevation of blood AcH over drug-free controls at 3 hours (AlDH [2]): more than 80 fold

N#CNC(=O)CNC(=O)c1ccccc1.N#CNC(=O)CNC(=O)c1ccccc1 [Compound 10, N-Benzoylglycylcyanamide (Hippurylcyanamide)]
potency in elevating ethanol-derived blood AcH (in words) (AlDH [2]): less potent than N-benzoyl-L-leucylcyanamide (11)
duration of action / blood AcH at 16 hours (in words) (AlDH [2]): long-acting with significant levels of blood AcH present
duration of blood AcH elevation over 72-hour time course (in words) (AlDH [4]): failed to maintain elevated blood AcH past 12 hours

CC(C)C[C@H](NC(=O)c1ccccc1)C(=O)NC#N [Compound 11, N-Benzoyl-L-leucylcyanamide]
potency in elevating ethanol-derived blood AcH (in words) (AlDH [2]): elevated blood AcH levels
duration of action / blood AcH at 16 hours (in words) (AlDH [2]): long-acting with significant levels of blood AcH present
duration of blood AcH elevation over 72-hour time course (in words) (AlDH [4]): continued to maintain elevated blood AcH even at 72 hours
initial blood AcH level at 2 hours compared with cyanamide (AlDH [4]; FIG. 5, 2 hours): less than cyanamide
time at which AcH levels once again increased (AlDH [5]): 24 h
time at which blood AcH fell back to control levels (AlDH [5]): around 36 hours
time of maximum AcH levels (AlDH [5]): 2 h
time of trough of AcH levels (AlDH [5]): 12 h

CC(C)C[C@H](NC(=O)CNC(=O)OCc1ccccc1)C(=O)NC#N [Compound 12, N-Cbz-glycyl-L-leucylcyanamide]
potency in elevating ethanol-derived blood AcH (in words) (AlDH [2]): more potent than (9)
duration of action / blood AcH at 16 hours (in words) (AlDH [2]): did not maintain significantly elevated blood AcH level

N#CNC(=O)[C@@H]1CCC(=O)N1C(=O)OCc1ccccc1 [Compound 13, N-Cbz-L-pyroglutamylcyanamide]
potency in elevating ethanol-derived blood AcH (in words) (AlDH [2]): not nearly as potent as the other prodrugs

CC(C)C[C@H](NC(=O)[C@@H]1CCC(=O)N1)C(=O)NC#N [Compound 14, L-Pyroglutamyl-L-leucylcyanamide]
potency in elevating ethanol-derived blood AcH (in words) (AlDH [2]): not nearly as potent as the other prodrugs

N#CNC(=O)[C@H](Cc1ccccc1)NC(=O)[C@@H]1CCC(=O)N1 [Compound 15, L-Pyroglutamyl-L-phenylalanylcyanamide]
potency in elevating ethanol-derived blood AcH (in words) (AlDH [2]): very potent inhibitor of AlDH in vivo
elevation of blood AcH over drug-free controls at 3 hours (AlDH [2]): more than 110 fold

N#CN [Cyanamide, cyanamide]
elevation of blood AcH over drug-free controls at 3 hours (AlDH [2]): 150 fold
elevation of blood AcH over controls at 16 hours (AlDH [2]): more than 25 fold
duration of blood AcH elevation over 72-hour time course (in words) (AlDH [4]): fell rapidly almost to control values at 36 hours
time at which blood AcH elevation reached maximum (AlDH [4]): ≤ 2 h
AlDH inhibitory activity in vitro ([1]; listed as cyanamide): devoid of AlDH inhibitory activity in vitro
AlDH inhibitory activity in vitro [1]: does not inhibit AlDH
administered cyanamide eliminated as acetylcyanamide in the urine [6]: At least 94%

[Ca+2].[N-]=C=[N-] [calcium carbimide]
duration of activity [7]: approximately 24 hours
